From publication PMC12026006, “Phosphodiesterase Inhibition and Immunotropic Activity of Dipyridamole Dynamic Derivatives” (Current Issues in Molecular Biology, 2025)
pIC50: −log10 of the molar value. Read-outs that look alike come from different tables or passages of the source.

Biological target: T1, cAMP-phosphodiesterase (PDE)
T1 construct: gene PDE1A; enzyme of commercial Abcam colorimetric PDE kit
Assay: colorimetric PDE activity kit ab139460, plate reader […] nm
Format: biochemical
Conditions: two-range dilution, measuring error 10%, isoenzyme not told, read-out: IC50 **^1

Structure (SMILES) | pIC50 (control from kit) | pIC50
CC(C)Cn1c(=O)n(C)c(=O)c2[nH]cnc21 [compound 11, 3-isobutyl-1-methylxanthine] | 5.30 | 
OCCN(CCO)c1nc(N2CCCCC2)c2nc(N(CCO)CCO)nc(N3CCCCC3)c2n1 [10 (D10), 2,6-bis-diethanolamino-4,8-dipiperidinopyrimido(5,4-d)-pyrimidine] |  | 5.30
